Measured values published in ChEMBL document CHEMBL3885881, “DrugMatrix”.

Species: Rattus norvegicus
Test: DrugMatrix - Regimen: Daily Repeat
Assay type: toxicity, organism-based, Sprague-Dawley
Design: regimen Daily Repeat, gender Male, age 6-8 weeks
Details: in vivo, po, route oral GAVAGE, vehicle .5 % CMC; for ABSOLUTE BASOPHIL / ABSOLUTE EOSINOPHIL / ABSOLUTE LYMPHOCYTE / ABSOLUTE MONOCYTE / ABSOLUTE SEGMENTED NEUTROPHIL / BASOPHIL / EOSINOPHIL / ERYTHROCYTE COUNT / HEMATOCRIT / HEMOGLOBIN / LEUKOCYTE COUNT / LYMPHOCYTE / MEAN CORPUSCULAR HEMOGLOBIN / MEAN CORPUSCULAR HEMOGLOBIN CONCENTRATION / MEAN CORPUSCULAR VOLUME / MONOCYTE / NEUTROPHIL / NUCLEATED RED BLOOD CELLS / PLATELET COUNT: tissue Blood; for ALANINE AMINOTRANSFERASE / ALBUMIN / ALKALINE PHOSPHATASE / ASPARTATE AMINOTRANSFERASE / BLOOD UREA NITROGEN / CARBON DIOXIDE / CHLORIDE / CHOLESTEROL / CREATINE PHOSPHOKINASE / CREATININE / GLUCOSE / LACTATE DEHYDROGENASE / LIPASE / PHOSPHORUS / POTASSIUM / SODIUM / TOTAL BILIRUBIN / TOTAL PROTEIN / URIC ACID: tissue Plasma
[1] = 0 mg/kg, 72 h, dose level Control, time 3 day
[2] = 0 mg/kg, 120 h, dose level Control, time 5 day
[3] = 2500 mg/kg, 72 h, dose level High, time 3 day

CN1CCC[C@@H]1CCO[C@](C)(c1ccccc1)c1ccc(Cl)cc1 [CLEMASTINE]
ABSOLUTE BASOPHIL [1]: 0 CELLS/uL
ABSOLUTE EOSINOPHIL [1]: 0 CELLS/uL
ABSOLUTE LYMPHOCYTE [1]: 12191.17 CELLS/uL
ABSOLUTE MONOCYTE [1]: 183.17 CELLS/uL
ABSOLUTE SEGMENTED NEUTROPHIL [1]: 1192.33 CELLS/uL
BASOPHIL [1]: 0%
EOSINOPHIL [1]: 0%
ERYTHROCYTE COUNT [1]: 5.51 x10E6/uL
HEMATOCRIT [1]: 35.45%
HEMOGLOBIN [1]: 13.82 G/DL
LEUKOCYTE COUNT [1]: 13.57 x10E3/uL
LYMPHOCYTE [1]: 89.83%
MEAN CORPUSCULAR HEMOGLOBIN [1]: 25.1 pg
MEAN CORPUSCULAR HEMOGLOBIN CONCENTRATION [1]: 38.98 G/DL
MEAN CORPUSCULAR VOLUME [1]: 64.42 fL
MONOCYTE [1]: 1.33%
NEUTROPHIL [1]: 8.83%
NUCLEATED RED BLOOD CELLS [1]: 0 /100WBC
PLATELET COUNT [1]: 1118.17 x10E3/uL
ALANINE AMINOTRANSFERASE [1]: 55 u/L
ALBUMIN [1]: 4.15 G/DL
ALKALINE PHOSPHATASE [1]: 449.5 u/L
ASPARTATE AMINOTRANSFERASE [1]: 112.83 u/L
BLOOD UREA NITROGEN [1]: 17.33 mg/dL
CARBON DIOXIDE [1]: 29.5 mmol/L
CHLORIDE [1]: 101 MEQ/L
CHOLESTEROL [1]: 70 mg/dL
CREATINE PHOSPHOKINASE [1]: 1325.83 u/L
CREATININE [1]: 0.18 mg/dL
GLUCOSE [1]: 171.5 mg/dL
LACTATE DEHYDROGENASE [1]: 386 u/L
LIPASE [1]: 10 u/L
PHOSPHORUS [1]: 11.57 mg/dL
POTASSIUM [1]: 6.21 MEQ/L
SODIUM [1]: 141.65 MEQ/L
TOTAL BILIRUBIN [1]: 0.15 mg/dL
TOTAL PROTEIN [1]: 5.75 G/DL
URIC ACID [1]: 1.28 mg/dL
ABSOLUTE BASOPHIL [2]: 0 CELLS/uL
ABSOLUTE EOSINOPHIL [2]: 138.17 CELLS/uL
ABSOLUTE LYMPHOCYTE [2]: 13283.17 CELLS/uL
ABSOLUTE MONOCYTE [2]: 303.83 CELLS/uL
ABSOLUTE SEGMENTED NEUTROPHIL [2]: 1308.17 CELLS/uL
BASOPHIL [2]: 0%
EOSINOPHIL [2]: 1%
ERYTHROCYTE COUNT [2]: 5.32 x10E6/uL
HEMATOCRIT [2]: 33.8%
HEMOGLOBIN [2]: 13.63 G/DL
LEUKOCYTE COUNT [2]: 15.03 x10E3/uL
LYMPHOCYTE [2]: 88.33%
MEAN CORPUSCULAR HEMOGLOBIN [2]: 25.68 pg
MEAN CORPUSCULAR HEMOGLOBIN CONCENTRATION [2]: 40.35 G/DL
MEAN CORPUSCULAR VOLUME [2]: 63.67 fL
MONOCYTE [2]: 1.83%
NEUTROPHIL [2]: 8.83%
NUCLEATED RED BLOOD CELLS [2]: 0 /100WBC
PLATELET COUNT [2]: 1097.5 x10E3/uL
ALANINE AMINOTRANSFERASE [2]: 54.5 u/L
ALBUMIN [2]: 4.27 G/DL
ALKALINE PHOSPHATASE [2]: 337 u/L
ASPARTATE AMINOTRANSFERASE [2]: 94.67 u/L
BLOOD UREA NITROGEN [2]: 17 mg/dL
CARBON DIOXIDE [2]: 28.33 mmol/L
CHLORIDE [2]: 101.5 MEQ/L
CHOLESTEROL [2]: 71.33 mg/dL
CREATINE PHOSPHOKINASE [2]: 628.17 u/L
CREATININE [2]: 0.19 mg/dL
GLUCOSE [2]: 177.83 mg/dL
LACTATE DEHYDROGENASE [2]: 500.5 u/L
LIPASE [2]: 9.5 u/L
PHOSPHORUS [2]: 12.3 mg/dL
POTASSIUM [2]: 5.63 MEQ/L
SODIUM [2]: 143.03 MEQ/L
TOTAL BILIRUBIN [2]: 0.2 mg/dL
TOTAL PROTEIN [2]: 6.02 G/DL
URIC ACID [2]: 1.5 mg/dL
ABSOLUTE BASOPHIL [3]: 0 CELLS/uL
ABSOLUTE EOSINOPHIL [3]: 0 CELLS/uL
ABSOLUTE LYMPHOCYTE [3]: 7950 CELLS/uL
ABSOLUTE MONOCYTE [3]: 225 CELLS/uL
ABSOLUTE SEGMENTED NEUTROPHIL [3]: 1825 CELLS/uL
BASOPHIL [3]: 0%
EOSINOPHIL [3]: 0%
ERYTHROCYTE COUNT [3]: 6.97 x10E6/uL
HEMATOCRIT [3]: 42.9%
HEMOGLOBIN [3]: 16.67 G/DL
LEUKOCYTE COUNT [3]: 10 x10E3/uL
LYMPHOCYTE [3]: 77%
MEAN CORPUSCULAR HEMOGLOBIN [3]: 23.97 pg
MEAN CORPUSCULAR HEMOGLOBIN CONCENTRATION [3]: 38.87 G/DL
MEAN CORPUSCULAR VOLUME [3]: 61.6 fL
MONOCYTE [3]: 2.33%
NEUTROPHIL [3]: 20.67%
NUCLEATED RED BLOOD CELLS [3]: 0 /100WBC
PLATELET COUNT [3]: 1501 x10E3/uL
ALANINE AMINOTRANSFERASE [3]: 133 u/L
ALBUMIN [3]: 4.1 G/DL
ALKALINE PHOSPHATASE [3]: 344 u/L
ASPARTATE AMINOTRANSFERASE [3]: 444 u/L
BLOOD UREA NITROGEN [3]: 70.67 mg/dL
CARBON DIOXIDE [3]: 23 mmol/L
CHLORIDE [3]: 102.5 MEQ/L
CHOLESTEROL [3]: 44.33 mg/dL
CREATINE PHOSPHOKINASE [3]: 1897.33 u/L
CREATININE [3]: 0.69 mg/dL
GLUCOSE [3]: 201 mg/dL
LACTATE DEHYDROGENASE [3]: 1757 u/L
LIPASE [3]: 14.33 u/L
PHOSPHORUS [3]: 18 mg/dL
POTASSIUM [3]: 6.26 MEQ/L
SODIUM [3]: 145.75 MEQ/L
TOTAL BILIRUBIN [3]: 0.73 mg/dL
TOTAL PROTEIN [3]: 5.93 G/DL
URIC ACID [3]: 2.83 mg/dL
